Legend:
[1] = molecular target: CYP2D6 (Homo sapiens, UniProt P10635); experiment: Inhibition of recombinant human CYP2D6 assessed as remaining enzyme activity using CYP2D6 blue as substrate at 10 uM after 5 mins in presence of NADP by fluorescence plate reader analysis; type: ADME; conditions: recombinant human CYP2D6, probe CYP2D6 blue, read-out: Activity
[2] = test system: SR; experiment: Antiproliferative activity against human SR cells assessed as cell growth at 10^-7 M after 48 hrs by sulforhodamine B assay; type: functional; conditions: read-out: Activity
[3] = test system: NCI-H322M; experiment: Antiproliferative activity against human NCI-H322M cells assessed as cell growth at 10^-7 M after 48 hrs by sulforhodamine B assay; type: functional; conditions: read-out: Activity
[4] = Antiproliferative activity against human HCT15 cells assessed as cell growth at 10^-7 M after 48 hrs by sulforhodamine B assay; type: functional; conditions: HCT-15, 48 h, read-out: Activity
[5] = Antiproliferative activity against human SNB19 cells assessed as cell growth at 10^-7 M after 48 hrs by sulforhodamine B assay; type: functional; conditions: SNB-19, 48 h, read-out: Activity
[6] = test system: MDA-MB-468; experiment: Antiproliferative activity against human MDA-MB-468 cells assessed as cell growth at 10^-4 M after 48 hrs by sulforhodamine B assay; type: functional; conditions: MDA-MB-468, 48 h, read-out: Activity
[7] = test system: SK-MEL-2; experiment: Antiproliferative activity against human SK-MEL-2 cells assessed as growth inhibition after 48 hrs by sulforhodamine B assay; type: functional; conditions: SK-MEL-2, 48 h; for CC50: read-out: LC50 (the source's name)
[8] = test system: MDA-MB-435; experiment: Antiproliferative activity against human MDA-MB-435 cells assessed as growth inhibition after 48 hrs by sulforhodamine B assay; type: functional; conditions: MDA-MB-435, 48 h; for CC50: read-out: LC50 (the source's name)
[9] = Antiproliferative activity against human UACC62 cells assessed as cell growth at 10^-7 M after 48 hrs by sulforhodamine B assay; type: functional; conditions: UACC-62, 48 h, read-out: Activity
[10] = Antiproliferative activity against human OVCAR3 cells assessed as cell growth at 10^-7 M after 48 hrs by sulforhodamine B assay; type: functional; conditions: OVCAR-3, 48 h, read-out: Activity
[11] = test system: A498; experiment: Antiproliferative activity against human A498 cells assessed as cell growth at 10^-7 M after 48 hrs by sulforhodamine B assay; type: functional; conditions: A498, 48 h, read-out: Activity
[12] = Antiproliferative activity against human Caki1 cells assessed as cell growth at 10^-7 M after 48 hrs by sulforhodamine B assay; type: functional; conditions: CAKI-1, 48 h, read-out: Activity
[13] = Antiproliferative activity against human RPMI8226 cells assessed as growth inhibition after 48 hrs by sulforhodamine B assay; type: functional; conditions: RPMI-8226, 48 h
[14] = test system: MDA-MB-231; experiment: Antiproliferative activity against human MDA-MB-231 cells assessed as growth inhibition after 48 hrs by sulforhodamine B assay; type: functional; conditions: MDA-MB-231, 48 h; for CC50: read-out: LC50 (the source's name)
[15] = test system: MDA-MB-468; experiment: Antiproliferative activity against human MDA-MB-468 cells assessed as growth inhibition after 48 hrs by sulforhodamine B assay; type: functional; conditions: MDA-MB-468, 48 h; for CC50: read-out: LC50 (the source's name)
[16] = molecular target: RAF proto-oncogene serine/threonine-protein kinase (Homo sapiens, UniProt P04049); experiment: Inhibition of human C-RAF measured after 40 mins by scintillation counting
[17] = molecular target: CYP3A4 (Homo sapiens, UniProt P08684); experiment: Inhibition of recombinant human CYP3A4 assessed as remaining enzyme activity using CYP3A4 blue as substrate at 10 uM after 5 mins in presence of NADP by fluorescence plate reader analysis; type: ADME; conditions: recombinant human CYP3A4, probe CYP3A4 blue, read-out: Activity
[18] = Antiproliferative activity against human HCT116 cells assessed as cell growth at 10^-8 M after 48 hrs by sulforhodamine B assay; type: functional; conditions: HCT-116, 48 h, read-out: Activity
[19] = test system: KM12; experiment: Antiproliferative activity against human KM12 cells assessed as cell growth at 10^-8 M after 48 hrs by sulforhodamine B assay; type: functional; conditions: KM12, 48 h, read-out: Activity
[20] = test system: CCRF-CEM; experiment: Antiproliferative activity against human CCRF-CEM cells assessed as cell growth at 10^-6 M after 48 hrs by sulforhodamine B assay; type: functional; conditions: read-out: Activity
[21] = test system: NCI-H23; experiment: Antiproliferative activity against human NCI-H23 cells assessed as cell growth at 10^-6 M after 48 hrs by sulforhodamine B assay; type: functional; conditions: NCI-H23, 48 h, read-out: Activity
[22] = Antiproliferative activity against human SNB19 cells assessed as cell growth at 10^-6 M after 48 hrs by sulforhodamine B assay; type: functional; conditions: SNB-19, 48 h, read-out: Activity
[23] = Antiproliferative activity against human SNB75 cells assessed as cell growth at 10^-6 M after 48 hrs by sulforhodamine B assay; type: functional; conditions: SNB-75, 48 h, read-out: Activity
[24] = test system: K562; experiment: Antiproliferative activity against human K562 cells assessed as cell growth at 10^-4 M after 48 hrs by sulforhodamine B assay; type: functional; conditions: K562, 48 h, read-out: Activity
[25] = test system: NCI-H322M; experiment: Antiproliferative activity against human NCI-H322M cells assessed as cell growth at 10^-4 M after 48 hrs by sulforhodamine B assay; type: functional; conditions: read-out: Activity
[26] = Antiproliferative activity against human SNB75 cells assessed as cell growth at 10^-4 M after 48 hrs by sulforhodamine B assay; type: functional; conditions: SNB-75, 48 h, read-out: Activity
[27] = test system: A498; experiment: Antiproliferative activity against human A498 cells assessed as cell growth at 10^-8 M after 48 hrs by sulforhodamine B assay; type: functional; conditions: A498, 48 h, read-out: Activity
[28] = test system: MDA-MB-231; experiment: Antiproliferative activity against human MDA-MB-231 cells assessed as cell growth at 10^-8 M after 48 hrs by sulforhodamine B assay; type: functional; conditions: MDA-MB-231, 48 h, read-out: Activity
[29] = test system: SK-MEL-2; experiment: Antiproliferative activity against human SK-MEL-2 cells assessed as cell growth at 10^-6 M after 48 hrs by sulforhodamine B assay; type: functional; conditions: SK-MEL-2, 48 h, read-out: Activity
[30] = Antiproliferative activity against human OVCAR5 cells assessed as cell growth at 10^-6 M after 48 hrs by sulforhodamine B assay; type: functional; conditions: OVCAR-5, 48 h, read-out: Activity
[31] = test system: A498; experiment: Antiproliferative activity against human A498 cells assessed as cell growth at 10^-6 M after 48 hrs by sulforhodamine B assay; type: functional; conditions: A498, 48 h, read-out: Activity
[32] = Antiproliferative activity against human Hs 578T cells assessed as cell growth at 10^-6 M after 48 hrs by sulforhodamine B assay; type: functional; conditions: read-out: Activity
[33] = Antiproliferative activity against human NCI-ADR-RES cells assessed as cell growth at 10^-4 M after 48 hrs by sulforhodamine B assay; type: functional; conditions: read-out: Activity
[34] = test system: 786-0; experiment: Antiproliferative activity against human 786-0 cells assessed as cell growth at […] after 48 hrs by sulforhodamine B assay; type: functional; conditions: 786-0, 48 h, read-out: Activity
[35] = Antiproliferative activity against human MOLT4 cells assessed as cell growth at 10^-4 M after 48 hrs by sulforhodamine B assay; type: functional; conditions: MOLT-4, 48 h, read-out: Activity

CYP3A4, sequence (P08684 whole entry): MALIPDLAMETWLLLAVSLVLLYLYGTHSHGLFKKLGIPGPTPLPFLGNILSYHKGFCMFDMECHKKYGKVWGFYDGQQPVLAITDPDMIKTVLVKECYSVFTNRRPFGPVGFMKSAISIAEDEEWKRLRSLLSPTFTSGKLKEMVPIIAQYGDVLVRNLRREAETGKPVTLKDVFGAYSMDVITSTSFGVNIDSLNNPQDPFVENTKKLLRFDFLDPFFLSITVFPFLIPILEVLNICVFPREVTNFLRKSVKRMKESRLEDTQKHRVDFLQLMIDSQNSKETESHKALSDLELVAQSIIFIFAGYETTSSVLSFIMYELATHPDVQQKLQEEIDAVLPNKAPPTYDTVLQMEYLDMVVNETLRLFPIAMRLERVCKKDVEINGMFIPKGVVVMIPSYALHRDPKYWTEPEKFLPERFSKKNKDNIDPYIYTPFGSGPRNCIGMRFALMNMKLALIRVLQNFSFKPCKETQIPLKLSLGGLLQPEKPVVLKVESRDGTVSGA
CYP2D6, sequence (P10635 whole entry): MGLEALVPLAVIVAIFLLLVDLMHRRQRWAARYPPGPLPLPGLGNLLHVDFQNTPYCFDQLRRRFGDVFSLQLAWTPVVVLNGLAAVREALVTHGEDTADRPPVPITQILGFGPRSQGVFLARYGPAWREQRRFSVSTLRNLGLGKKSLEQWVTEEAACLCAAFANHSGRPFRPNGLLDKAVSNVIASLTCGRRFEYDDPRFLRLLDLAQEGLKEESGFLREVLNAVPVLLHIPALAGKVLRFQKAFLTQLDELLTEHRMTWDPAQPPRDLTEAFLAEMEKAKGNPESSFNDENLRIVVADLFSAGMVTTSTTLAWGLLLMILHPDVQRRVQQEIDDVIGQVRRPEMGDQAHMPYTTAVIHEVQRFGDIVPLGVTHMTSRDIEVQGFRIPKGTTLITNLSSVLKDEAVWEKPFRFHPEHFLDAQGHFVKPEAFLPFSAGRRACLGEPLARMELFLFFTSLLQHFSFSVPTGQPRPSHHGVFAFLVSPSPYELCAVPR
RAF proto-oncogene serine/threonine-protein kinase, sequence (P04049 whole entry): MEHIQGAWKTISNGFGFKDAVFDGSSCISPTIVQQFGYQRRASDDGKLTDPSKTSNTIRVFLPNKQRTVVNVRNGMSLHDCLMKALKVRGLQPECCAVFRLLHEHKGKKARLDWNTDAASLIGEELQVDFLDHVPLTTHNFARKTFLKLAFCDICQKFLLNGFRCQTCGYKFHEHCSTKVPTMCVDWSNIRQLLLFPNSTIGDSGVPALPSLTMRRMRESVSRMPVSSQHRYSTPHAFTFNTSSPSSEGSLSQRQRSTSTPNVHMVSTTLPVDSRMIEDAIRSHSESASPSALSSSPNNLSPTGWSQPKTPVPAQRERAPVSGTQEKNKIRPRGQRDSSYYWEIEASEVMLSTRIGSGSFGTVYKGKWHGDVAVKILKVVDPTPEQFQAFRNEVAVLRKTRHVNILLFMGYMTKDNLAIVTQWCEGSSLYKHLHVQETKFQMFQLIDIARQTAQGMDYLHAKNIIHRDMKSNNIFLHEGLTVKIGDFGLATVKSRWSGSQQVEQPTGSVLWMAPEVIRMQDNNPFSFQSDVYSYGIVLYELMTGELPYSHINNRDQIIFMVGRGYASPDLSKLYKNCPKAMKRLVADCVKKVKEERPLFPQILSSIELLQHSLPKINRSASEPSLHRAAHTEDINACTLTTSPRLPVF

## CNC(=O)c1cc(Oc2ccc3nc(NC(=O)Nc4cc(C(F)(F)F)cc(C(F)(F)F)c4)sc3c2)ccn1
[1]
  activity at 5 min, 10 µM: 91.5%
[2]
  growth at 0.1 µM: 91%
[3]
  growth at 0.1 µM: 102%
[4]
  growth at 0.1 µM: 100%
[5]
  growth at 0.1 µM: 111%
[6]
  growth at 100 µM: -75%
[7]
  GI50: 1.05 µM
  TGI: 3.13 µM
  CC50: 9.31 µM
[8]
  GI50: 1040 nM
  TGI: 2700 nM
  CC50: 6.99 µM
[9]
  growth at 0.1 µM: 93%
[10]
  growth at 0.1 µM: 97%
[11]
  growth at 0.1 µM: 111%
[12]
  growth at 0.1 µM: 94%
[13]
  GI50: 1020 nM
  LC50: 76.3 µM
  TGI: 3.81 µM
[14]
  GI50: 829 nM
  TGI: 2.62 µM
  CC50: 7.5 µM
[15]
  GI50: 399 nM
  TGI: 1750 nM
  CC50: 6.08 µM
[16]
  IC50: 566 nM
[17]
  activity at 5 min, 10 µM: 50.6%
[18]
  growth at 0.01 µM: 102%
[19]
  growth at 0.01 µM: 100%
[20]
  growth at 1 µM: 52%
[21]
  growth at 1 µM: 36%
[22]
  growth at 1 µM: 62%
[23]
  growth at 1 µM: 50%
[24]
  growth at 100 µM: -35%
[25]
  growth at 100 µM: -50%
[26]
  growth at 100 µM: -75%
[27]
  growth at 0.01 µM: 100%
[28]
  growth at 0.01 µM: 103%
[29]
  growth at 1 µM: 52%
[30]
  growth at 1 µM: 77%
[31]
  growth at 1 µM: 51%
[32]
  growth at 1 µM: 73%
[33]
  growth at 100 µM: -49%
[34]
  growth at 100 µM: -94%

## CNC(=O)c1cc(Oc2ccc3nc(NC(=O)Nc4ccc(Cl)c(C(F)(F)F)c4)sc3c2)ccn1
[1]
  activity at 5 min, 10 µM: 98.7%
[2]
  growth at 0.1 µM: 105%
[3]
  growth at 0.1 µM: 103%
[4]
  growth at 0.1 µM: 96%
[5]
  growth at 0.1 µM: 100%
[6]
  growth at 100 µM: -43%
[7]
  GI50: 5.69 µM
  TGI: 47 µM
  CC50: > 100 µM
[8]
  GI50: 1900 nM
  CC50: > 100 µM
[9]
  growth at 0.1 µM: 91%
[10]
  growth at 0.1 µM: 111%
[11]
  growth at 0.1 µM: 97%
[12]
  growth at 0.1 µM: 93%
[13]
  GI50: 2220 nM
  LC50: > 100 µM
[14]
  GI50: 1430 nM
  TGI: 4.29 µM
  CC50: 59.2 µM
[15]
  GI50: 1360 nM
  TGI: 4100 nM
  CC50: > 100 µM
[16]
  IC50: 111 nM
[17]
  activity at 5 min, 10 µM: 105%
[18]
  growth at 0.01 µM: 101%
[19]
  growth at 0.01 µM: 103%
[20]
  growth at 1 µM: 73%
[21]
  growth at 1 µM: 88%
[22]
  growth at 1 µM: 85%
[23]
  growth at 1 µM: 78%
[24]
  growth at 100 µM: 59%
[35]
  growth at 100 µM: 55%
[25]
  growth at 100 µM: 27%
[26]
  growth at 100 µM: -80%
[27]
  growth at 0.01 µM: 95%
[28]
  growth at 0.01 µM: 115%
[29]
  growth at 1 µM: 89%
[30]
  growth at 1 µM: 90%
[31]
  growth at 1 µM: 80%
[32]
  growth at 1 µM: 65%
[33]
  growth at 100 µM: 11%
[34]
  growth at 100 µM: -77%
